Assay results from the supplement of paper PMC13380429.

Columns and labels:
Details in all cases: 72 h
[1] = tested on: Caco-2; assay: cell viability relative to DMSO; higher = less toxic
[2] = tested on: Calu-3; assay: as above
[3] = tested on: HepG2; assay: as above
[4] = tested on: U2OS; assay: as above
[5] = tested on: Vero E6; assay: as above
[6] = tested on: Caco-2; assay: relative viability EC50 (midpoint between 100% and the lowest measured viability); higher = less toxic
[7] = tested on: Calu-3; assay: as above
[8] = tested on: HepG2; assay: as above
[9] = tested on: U2OS; assay: as above
[10] = tested on: Vero E6; assay: as above
[11] = tested on: Caco-2; assay: drug sensitivity score (DSS) for viability; higher = more toxic; extreme values may be limits of the assay
[12] = tested on: Calu-3; assay: as above
[13] = tested on: HepG2; assay: as above
[14] = tested on: U2OS; assay: as above
[15] = tested on: Vero E6; assay: as above

| Compound | cell viability ([1]; 1 nM) [%] | cell viability ([1]; 10 nM) [%] | cell viability ([1]; 100 nM) [%] | cell viability ([1]; 1000 nM) [%] | cell viability ([1]; 10000 nM) [%] | cell viability ([2]; 1 nM) [%] | cell viability ([2]; 10 nM) [%] | cell viability ([2]; 100 nM) [%] | cell viability ([2]; 1000 nM) [%] | cell viability ([2]; 10000 nM) [%] | cell viability ([3]; 1 nM) [%] | cell viability ([3]; 10 nM) [%] | cell viability ([3]; 100 nM) [%] | cell viability ([3]; 1000 nM) [%] | cell viability ([3]; 10000 nM) [%] | cell viability ([4]; 1 nM) [%] | cell viability ([4]; 10 nM) [%] | cell viability ([4]; 100 nM) [%] | cell viability ([4]; 1000 nM) [%] | cell viability ([4]; 10000 nM) [%] | cell viability ([5]; 1 nM) [%] | cell viability ([5]; 10 nM) [%] | cell viability ([5]; 100 nM) [%] | cell viability ([5]; 1000 nM) [%] | cell viability ([5]; 10000 nM) [%] | relative viability EC50 [6] [µM] | relative viability EC50 [7] [µM] | relative viability EC50 [8] [µM] | relative viability EC50 [9] [µM] | relative viability EC50 [10] [µM] | drug sensitivity score [11] | drug sensitivity score [12] | drug sensitivity score [13] | drug sensitivity score [14] | drug sensitivity score [15] |
| --- | --- | --- | --- | --- | --- | --- | --- | --- | --- | --- | --- | --- | --- | --- | --- | --- | --- | --- | --- | --- | --- | --- | --- | --- | --- | --- | --- | --- | --- | --- | --- | --- | --- | --- | --- |
| CO/N=C1\CN(c2nc3c(cc2F)c(=O)c(C(=O)O)cn3C2CC2)CC1CN (stereo not given) [gemifloxacin] | 92.2 | 114 | 105 | 96.9 | 95.9 | 99.6 | 98.5 | 98.4 | 98.5 | 105 | 105 | 108 | 105 | 100 | 86.8 | 97 | 102 | 97.3 | 100 | 94.3 | 103 | 102 | 102 | 102 | 95.7 | > 10 | > 10 | > 10 | > 10 | > 10 | 0 | 0 | 0.1 | 0 | 0 |
| CC(C)[N+](C)(CCOC(=O)C1c2ccccc2Oc2ccccc21)C(C)C [propantheline] | 86.1 | 95.3 | 105 | 91.7 | 105 | 93.8 | 101 | 108 | 108 | 109 | 107 | 99 | 103 | 110 | 93.6 | 96.9 | 95.6 | 102 | 96.9 | 102 | 108 | 108 | 98.8 | 104 | 101 | > 10 | > 10 | > 10 | > 10 | > 10 | 0 | 0 | 0 | 0 | 0 |
| CC(C)C[C@H](NC(=O)OCc1ccccc1)C(=O)N[C@@H](C[C@@H]1CCNC1=O)C(O)S(=O)(=O)O (stereo not given in full) [GC376 sodium] | 97.2 | 92.6 | 96.7 | 92.7 | 108 | 105 | 92.2 | 99.9 | 104 | 96.1 | 101 | 99.8 | 97 | 102 | 95.4 | 90.4 | 101 | 97.3 | 100 | 108 | 90.3 | 104 | 93.2 | 102 | 108 | > 10 | > 10 | > 10 | > 10 | > 10 | 0 | 0 | 0 | 0 | 0 |
| COc1cc2c(cc1OC)[C@H](C)NCC2 [Isoquinoline,-6,7-dimethoxy-1-methyl-1,2,3,4-tetrahydro,] | 92.5 | 89.1 | 99.4 | 92.3 | 112 | 109 | 104 | 101 | 109 | 96.1 | 100 | 95.6 | 99.9 | 97.4 | 101 | 102 | 103 | 104 | 90.4 | 102 | 97.3 | 96.5 | 96.8 | 96.5 | 106 | > 10 | > 10 | > 10 | > 10 | > 10 | 0 | 0 | 0 | 0 | 0 |
| O=C(Oc1ccccc1C(=O)O)c1ccccc1O [sasapyrine] | 106 | 95.3 | 90.3 | 82.8 | 81.9 | 87.8 | 108 | 100 | 100 | 93 | 93.1 | 86.4 | 100 | 91.7 | 105 | 100 | 98.6 | 101 | 97.2 | 94.9 | 110 | 99.9 | 102 | 88.3 | 89.8 | > 10 | > 10 | > 10 | > 10 | > 10 | 2.6 | 0 | 0 | 0 | 0.4 |
